# In patent US8569316B2, “Pyrimido [5,4-D] pyrimidine derivatives for the inhibition of tyrosine kinases” (Boehringer Ingelheim International GmbH, priority 2009, dated 2013):
# Molecular target: B-Raf (V600E)-kinase (Homo sapiens (Human), UniProt P15056, V600E)
# Assay: Kinase test B-Raf (V600E)
# Format: biochemical
# Settings: 250 μM ATP, biotinylated MEK1 substrate
# Procedure: In a dilution series 10 μL of test substance solution are placed in a multiwell plate. The dilution series is selected so that generally a range of concentrations of 2 μM to 0.128 nM or 0.017 nM is covered. If necessary the initial concentration of 2 μM is changed to 50 μM, 10 μM or 0.4 μM or 0.2857 μM and further dilution is carried out accordingly. The final concentration of DMSO is 5%. 10 μL of the B-Raf (V600E)-kinase solution are pipetted in (containing 0.5 ng B-Raf (V600E)-kinase in 20 mM Tris-HCl pH 7.5, 0.1 mM EDTA, 0.1 mM EGTA, 0.286 mM sodium orthovanadate, 10% glycerol, 1 mg/mL bovine serum albumin, 1 mM dithiothreitol) and the mixture is incubated for 1 h at RT under with shaking. The kinase reaction is started by the addition of 20 μL ATP solution [final concentration: 250 μM ATP, 30 mM Tris-HCl pH 7.5, 0.02% Brij, 0.2 mM sodium orthovanadate, 10 mM magnesium acetate, phosphatase cocktail (Sigma, #P2850, dilution recommended by the manufacturer), 0.1 mM EGTA] and 10 μL MEK1 solution [containing 50 ng biotinylated MEK1 (prepared from purified MEK1 according to standard procedure, e.g. with EZ-Link Sulpho-NHS-LC-Biotin reagent, Pierce, #21335) in 50 mM Hepes pH 7.5, 150 mM NaCl, 10% glycerol, 0.02% Brij-35, 0.2 mM PMSF, 0.2 mM benzamidine] and carried out for 60 min at RT with constant shaking. The reaction is stopped by the addition of 12 μL of a 100 mM EDTA solution and incubation is continued for a further 5 min. 55 μL of the reaction solution are transferred into a streptavidin-coated plate (e.g. Streptawell HighBond, Roche, #11989685001) and shaken gently for 1 h at RT, in order to bind biotinylated MEK1 to the plate. After elimination of the liquid the plate is washed five times with 200 μL of 1×PBS and 100 μL solution of primary antibody plus europium-labelled secondary antibody [Anti Phospho-MEK (Ser217/221), Cell Signaling, #9121 and Eu-N1 labeled goat-anti-rabbit antibody, Perkin Elmer, #AD0105], the primary antibody is diluted 1:2000 and the secondary antibody is diluted to 0.4-0.5 μg/mL in Delfia Assay Buffer (Perkin Elmer, #1244-111). After 1 h shaking at RT the solution is poured away and washed five times with 200 μL Delfia Wash Buffer (Perkin Elmer, #4010-0010/#1244-114). After the addition of 200 μL Enhancement Solution (Perkin Elmer, #4001-0010/#1244-105) the mixture is shaken for 10 min at RT and then measured in a Wallac Victor using the program “Delfia Time Resolved Fluorescence (Europium)”. IC50 values are obtained from these dosage-activity curves using a software program (GraphPadPrizm).
# Chain of B-Raf (V600E)-kinase (P15056 whole entry V600E): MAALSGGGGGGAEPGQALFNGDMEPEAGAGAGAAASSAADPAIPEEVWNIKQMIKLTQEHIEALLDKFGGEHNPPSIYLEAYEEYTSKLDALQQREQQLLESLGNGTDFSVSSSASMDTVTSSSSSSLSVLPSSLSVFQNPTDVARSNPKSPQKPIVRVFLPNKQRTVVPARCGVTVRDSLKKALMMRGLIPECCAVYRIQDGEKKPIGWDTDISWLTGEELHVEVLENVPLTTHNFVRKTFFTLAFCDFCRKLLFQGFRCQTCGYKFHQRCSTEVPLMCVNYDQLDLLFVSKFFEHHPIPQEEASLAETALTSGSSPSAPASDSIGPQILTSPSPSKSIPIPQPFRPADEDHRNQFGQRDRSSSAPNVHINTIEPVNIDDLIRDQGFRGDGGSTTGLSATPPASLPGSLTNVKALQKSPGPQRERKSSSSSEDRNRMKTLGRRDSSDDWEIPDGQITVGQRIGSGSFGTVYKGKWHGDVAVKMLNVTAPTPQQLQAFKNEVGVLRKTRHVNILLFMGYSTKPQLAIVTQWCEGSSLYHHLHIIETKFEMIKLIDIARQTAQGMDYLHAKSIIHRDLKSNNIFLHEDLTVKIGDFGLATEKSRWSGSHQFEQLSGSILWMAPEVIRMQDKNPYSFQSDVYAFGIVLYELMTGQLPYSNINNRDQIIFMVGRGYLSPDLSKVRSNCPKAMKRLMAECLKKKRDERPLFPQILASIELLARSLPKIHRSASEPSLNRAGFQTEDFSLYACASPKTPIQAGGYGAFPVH
row,SMILES,IC50
1,COc1c(NC(=O)c2ccc(C)c(Nc3ncnc4ccc(C5CCN(C)CC5)nc34)c2)cc(C(C)(C)C)cc1NS(C)(=O)=O [III-32],151 nM
2,COc1c(NC(=O)c2ccc(C)c(Nc3ncnc4ccc(CC5CCN(C)CC5)nc34)c2)cc(C(C)(C)C)cc1NS(C)(=O)=O [III-44],364 nM
3,COc1c(NC(=O)c2ccc(C)c(Nc3ncnc4ccc(CC5CNCCOC5)nc34)c2)cc(C(C)(C)C)cc1NS(C)(=O)=O (centres unmarked) [III-43],213 nM
4,Cc1ccc(C(=O)n2nc(C(C)(C)C)cc2N)cc1Nc1ncnc2ccc(N3CCOCC3)nc12 [III-4],2060 nM
5,COc1c(NC(=O)c2ccc(C)c(Nc3ncnc4ccc(N5CCOCC5)nc34)c2)cc(C(C)(C)C)cc1NS(C)(=O)=O [III-24],50 nM
6,Cc1ccc(C(=O)Nc2cc(C(C)(C)C)n[nH]2)cc1Nc1ncnc2ccc(N3CCOCC3)nc12 [III-5],7 nM
7,COCCN1CCC(c2ccc3ncnc(Nc4cc(C(=O)Nc5cc(C(C)(C)C)cc(NS(C)(=O)=O)c5OC)ccc4C)c3n2)C1 (centres unmarked) [III-41],315 nM
8,COc1c(NC(=O)c2ccc(C)c(Nc3ncnc4ccc(CC5CCNCC5)nc34)c2)cc(C(C)(C)C)cc1NS(C)(=O)=O [III-37],170 nM
9,Cc1ccc(C(=O)Nc2cc(CN3CCCC3)cc(C(F)(F)F)c2)cc1Nc1ncnc2ccc(N3CCOCC3)nc12 [III-9],4 nM
10,COCCN1CCC(Cc2ccc3ncnc(Nc4cc(C(=O)Nc5cc(C(C)(C)C)cc(NS(C)(=O)=O)c5OC)ccc4C)c3n2)CC1 [III-49],496 nM
11,COCCN1CCN(c2ccc3ncnc(Sc4cc(C(=O)Nc5cc(C(C)(C)C)on5)ccc4C)c3n2)CC1 [III-54],269 nM
12,COc1c(NC(=O)c2ccc(C)c(Nc3ncnc4ccc(C5CCN(CC6CC6)CC5)nc34)c2)cc(C(C)(C)C)cc1NS(C)(=O)=O [III-35],288 nM
13,COCCN1CCC(c2ccc3ncnc(Nc4cc(C(=O)Nc5cc(C(C)(C)C)cc(NS(C)(=O)=O)c5OC)ccc4C)c3n2)CC1 [III-36],443 nM
14,COc1c(NC(=O)c2ccc(C)c(Nc3ncnc4ccc(C5CCCNC5)nc34)c2)cc(C(C)(C)C)cc1NS(C)(=O)=O (centres unmarked) [III-42],229 nM
15,Cc1ccc(C(=O)Nc2cc(C(C)(C)C)on2)cc1Nc1ncnc2ccc(N(C)C)nc12 [III-17],9 nM
16,CCOCCN1CCC(Cc2ccc3ncnc(Nc4cc(C(=O)Nc5cc(C(C)(C)C)cc(NS(C)(=O)=O)c5OC)ccc4C)c3n2)CC1 [III-50],479 nM
17,CCN1CCC(c2ccc3ncnc(Nc4cc(C(=O)Nc5cc(C(C)(C)C)cc(NS(C)(=O)=O)c5OC)ccc4C)c3n2)CC1 [III-33],185 nM
18,CCN1CCN(c2ccc3ncnc(Nc4cc(C(=O)Nc5cc(C(C)(C)C)cc(NS(C)(=O)=O)c5OC)ccc4C)c3n2)CC1 [III-23],508 nM
19,COc1c(NC(=O)c2ccc(C)c(Nc3ncnc4ccc(N5CCC(N6CCOCC6)C5)nc34)c2)cc(C(C)(C)C)cc1NS(C)(=O)=O (centres unmarked) [III-26],1460 nM
20,COc1c(NC(=O)c2ccc(C)c(Nc3ncnc4ccc(NC5CCOC5)nc34)c2)cc(C(C)(C)C)cc1NS(C)(=O)=O (centres unmarked) [III-21],30 nM
21,COc1c(NC(=O)c2ccc(C)c(Nc3ncnc4ccc(C5=CCN(C)CC5)nc34)c2)cc(C(C)(C)C)cc1NS(C)(=O)=O [III-30],344 nM
22,Cc1ccc(C(=O)N2CCOCC2)cc1Nc1ncnc2cnc(N3CCOCC3)cc12 [I-4],> 1400 nM
23,COc1c(NC(=O)c2ccc(C)c(Nc3ncnc4ccc(N5CCN(C)CC5)nc34)c2)cc(C(C)(C)C)cc1NS(C)(=O)=O [III-18],225 nM
24,COc1ccc(NC(=O)c2ccc(C)c(Nc3ncnc4cnc(N5CCOCC5)cc34)c2)cc1C(F)(F)F [I-1],106 nM
25,COc1c(NC(=O)c2ccc(C)c(Nc3ncnc4ccc(CC5CCN(CC6CC6)CC5)nc34)c2)cc(C(C)(C)C)cc1NS(C)(=O)=O [III-47],504 nM

row,SMILES,IC50
1,Cc1ccc(C(=O)Nc2cc(N3CCN(C)CC3)cc(C(F)(F)F)c2)cc1Nc1ncnc2ccc(N3CCOCC3)nc12 [III-7],4 nM
2,COCCN1CCN(c2ccc3ncnc(Sc4cc(C(=O)Nc5cc(N6CCN(C)CC6)cc(C(F)(F)F)c5)ccc4C)c3n2)CC1 [III-53],190 nM
3,COc1ccc(NC(=O)c2ccc(C)c(Nc3ncnc4cnc(N5CCCC5)cc34)c2)cc1C(F)(F)F [I-3],316 nM
4,COc1ccc(NC(=O)c2ccc(C)c(Nc3ncnc4ccc(N(C)C)nc34)c2)cc1C(F)(F)F [III-16],44 nM
5,CCN1CCC(Cc2ccc3ncnc(Nc4cc(C(=O)Nc5cc(C(C)(C)C)cc(NS(C)(=O)=O)c5OC)ccc4C)c3n2)CC1 [III-45],530 nM
6,COc1c(NC(=O)c2ccc(C)c(Nc3ncnc4ccc(C5=CCN(C(C)C)CC5)nc34)c2)cc(C(C)(C)C)cc1NS(C)(=O)=O [III-29],295 nM
7,Cc1ccc(C(=O)Nc2cc(C(C)(C)C)on2)cc1Nc1ncnc2ccc(N3CCOCC3)nc12 [III-2],32 nM
8,COc1ccc(NC(=O)c2ccc(C)c(Nc3ncnc4cnc(N5CCN(C)CC5)cc34)c2)cc1C(F)(F)F [I-2],224 nM
9,COc1c(NC(=O)c2ccc(C)c(Nc3ncnc4ccc(C5CCN(C(C)C)CC5)nc34)c2)cc(C(C)(C)C)cc1NS(C)(=O)=O [III-34],257 nM
10,COCCN1CCN(c2ccc3ncnc(Nc4cc(C(=O)Nc5ccc(OC)c(C(F)(F)F)c5)ccc4C)c3n2)CC1 [III-14],140 nM
11,Cc1ccc(NC(=O)c2cccc(C(C)(C)C#N)c2)cc1Nc1ncnc2ccc(N3CC[C@H](F)C3)nc12 [IV-4],11 nM
12,COc1ccc(NC(=O)c2ccc(C)c(Nc3ncnc4ccc(N5CCOCC5)nc34)c2)cc1C(F)(F)F [III-1],11 nM
13,Cc1ccc(C(=O)Nc2cc(C(C)(C)C)on2)cc1Nc1ncnc2ccc(N3CCN(CC4CCN(C)CC4)CC3)nc12 [III-12],12 nM
14,COc1ccc(NC(=O)c2ccc(C)c(Nc3ncnc4ccc(N5CCN(CC6CCN(C)CC6)CC5)nc34)c2)cc1C(F)(F)F [III-15],26 nM
15,CCCN1CCC(Cc2ccc3ncnc(Nc4cc(C(=O)Nc5cc(C(C)(C)C)cc(NS(C)(=O)=O)c5OC)ccc4C)c3n2)CC1 [III-48],583 nM
16,Cc1ccc(C(=O)Nc2cc(C(C)(C)C)nn2C)cc1Nc1ncnc2ccc(N3CCOCC3)nc12 [III-6],15 nM
17,COc1ccc(NC(=O)c2ccc(C)c(Nc3ncnc4ccc(N5CCN(C)CC5)nc34)c2)cc1C(F)(F)F [III-13],57 nM
18,Cc1ccc(NC(=O)c2cccc(C(C)(C)C#N)c2)cc1Nc1ncnc2ccc(N3CCOCC3)nc12 [IV-1],4 nM
19,COc1c(NC(=O)c2ccc(C)c(Nc3ncnc4ccc(N(C)C5CCOC5)nc34)c2)cc(C(C)(C)C)cc1NS(C)(=O)=O (centres unmarked) [III-20],24 nM
20,COc1c(NC(=O)c2ccc(C)c(Nc3ncnc4ccc(CC5CCN(C(C)C)CC5)nc34)c2)cc(C(C)(C)C)cc1NS(C)(=O)=O [III-46],553 nM
21,Cc1ccc(C(=O)Nc2cc(C(C)(C)C)on2)cc1Nc1ncnc2ccc(N3CCN(C)CC3)nc12 [III-10],12 nM
22,Cc1ccc(NC(=O)c2cccc(C(C)(C)C#N)c2)cc1Nc1ncnc2ccc(N3CCN(C)CC3)nc12 [IV-2],8 nM
23,Cc1ccc(C(=O)Nc2cc(N3CCCN(C)CC3)cc(C(F)(F)F)c2)cc1Nc1ncnc2ccc(N3CCOCC3)nc12 [III-8],5 nM
24,COc1c(NC(=O)c2ccc(C)c(Nc3ncnc4ccc(C5=CCNC5)nc34)c2)cc(C(C)(C)C)cc1NS(C)(=O)=O [III-38],282 nM
25,COCCN1CCN(c2ccc3ncnc(Sc4cc(C(=O)Nc5cccc(C(C)(C)C#N)c5)ccc4C)c3n2)CC1 [III-52],261 nM
